Data on one compound can be found in PMC9863562, “Design, Synthesis, and Biological Evaluation of 2-Mercaptobenzoxazole Derivatives as Potential Multi-Kinase Inhibitors” (Pharmaceuticals, 2023).

The structures appear in SMILES notation.

Assay [1] concerns MDA-MB-231 cells (breast cancer). Kind of assay: MTT cytotoxicity assay, MDA-MB-231. In kind it is cell-based. Particulars: Homo sapiens, 24 h treatment, read-out: In Vitro Cytotoxicity IC50 MDA-MB-231. The protocol:
After incubation, the cells were treated with various concentrations of the synthesized compounds and incubated for an additional 24 h. Following the drug treatment, 20 µL of 5 mg/mL MTT solution was added and incubated for 4 h. To dissolve the purple formazan that had formed, 100 µL dimethyl sulfoxide (DMSO) was added to each well. […] The percentage of relative cell viability was counted using the following formula (A570 of handled specimens/A570 of the unhandled specimen), multiplied by 100.
(Formazan colour is commonly taken as a measure of viable cells.)

Assay [2] has as its system HepG2, MCF-7, MDA-MB-231 and HeLa cell lines. Kind of assay: MTT cytotoxicity assay, panel of four cell lines. It is filed as cell-based. Conditions: Homo sapiens, range over HepG2, MCF-7, MDA-MB-231, HeLa, read-out: IC50 values, range over the tested cell lines. The text has this: The in vitro cytotoxicity for the final target compounds, 4(a–d), 5(a–f), and 6(a–b), was preliminarily evaluated via the MTT colorimetric assay against a panel of four human cell lines, namely, the hepatocellular carcinoma (HepG2), mammary gland (MCF-7), breast cancer (MDA-MB-231) and epithelioid cervix carcinoma (HeLa).
The cytotoxicity of the target hybrids was examined by an MTT assay against HepG2, HeLa, MCF-7, and MDA-MB-231. At first, the RPMI-1640 medium with 10% fetal bovine serum was used to cultivate the cell lines. Then, antibiotics (penicillin (100 units/mL) and streptomycin (100 µg/mL)) were added in a 37 °C incubator in 5% CO2. The cell lines were seeded in a 96-well plate at a density of 1.0 × 10^4 cells/well at 37 °C under 5% CO2 for 48 h. After incubation, the cells were treated with various concentrations of the synthesized compounds and incubated for an additional 24 h. Following the drug treatment, 20 µL of 5 mg/mL MTT solution was added and incubated for 4 h. To dissolve the purple formazan that had formed, 100 µL dimethyl sulfoxide (DMSO) was added to each well. At a wavelength of 570 nm, the colorimetric assay was recorded and measured, using a plate reader BioTek EXL 800 (Agilent Technologies, Inc., Santa Clara, CA, USA). The percentage of relative cell viability was counted using the following formula (A570 of handled specimens/A570 of the unhandled specimen), multiplied by 100. The results of the cytotoxicity value were presented as the median growth inhibitory concentration (IC50) of the reagents compared to the control.

Assay [3] addresses T1, Human VEGFR-2 (Homo sapiens, UniProt P35968).
T1 construct: purchased
Kind of assay: In vitro VEGFR-2 enzyme assay (ELISA kit). Conditions: read-out: IC50 VEGFR2. It is filed as biochemical. The procedure: Compound 6b was biologically evaluated for its inhibitory effect against CDK2, EGFR, HER2, and VEGFR-2. Human CDK2, EGFR, HER2, and VEGFR-2 ELISA kits (Enzyme-Linked-Immunosorbent Serologic Assay) were used during this evaluation. At first, specified antibody proteins were added separately to a 96-well plate, then 0.1 mL of the standard solution or the evaluated molecule was added; these were then incubated for 2.5 h at RT. After rinsing, 100 μL of the ready-made biotin antibody protein was added, then incubated for one extra hour at room temperature and, finally, washed. Next, 100 μL of streptavidin solution was added, incubated at room temperature for 45 min, and then washed. Next, 100 μL of the TMB substrate reagent was added and incubated for 0.5 h at RT, followed by adding 50 μL of the stop solution. The absorbance of the ELISA plate was promptly measured at 450 nm using the ELISA plate reader. The standard curve that was generated had absorbances on the Y-axis and concentrations on the X-axis.
Background: ELISA stands for enzyme-linked immunosorbent assay.

For assay [4], the system named is Bax. The assay can be described thus: Apoptosis-related proteins in HepG2 cells (ELISA), Bax. It is filed as cell-based, human. The source says: (§1) Compound 6b was selected to investigate the apoptotic markers against the liver cancer cell line (HepG2). […] Typically, Bax, Bcl-2, and caspases contribute to the regulation of apoptotic signaling. Acting as an apoptotic activator (Bax) or inhibitor (Bcl-2), the Bcl-2 family of proteins plays a significant role in apoptosis. The caspase family comprises cysteine proteases that are classified as either executioner—caspase-3, or as initiators—caspase-9 and caspase-8 [40]. […] Nevertheless, considerable downregulation of the anti-apoptotic gene, Bcl-2 (0.26 folds), was described, leading to an increased expression ratio of Bax/Bcl-2 (1→20.53). The Bax/Bcl-2 gene expression ratio can serve as an early predictor for cancer in patients and is a sensitive monitor of cancer progression. Collating all the provided evidence, the upregulation of caspase-3, caspase-9, and Bax is clear, while the downregulation of Bcl-2 genes makes it evident that compound 6b induces apoptosis within the liver cancer cell line (HepG2).
The HepG2 cells were incubated in 96-well plates in triplicates and left for 24 h. After 24 h of incubation, the cells were treated with compound 6b at different concentrations, while control cells were only treated with 0.1% DMSO (v/v). The treated cells, along with control cells, were then incubated for another 24 h; then, caspases-3 and 9, BAX, and Bcl-2 levels were determined using ELISA assay kits; KHO1091 (Invitrogen^TM, Grand Island, NY, USA), EIA-4860 (DRU International, Inc., Mountainside, NJ, USA), EIA-4487 (DRU International INC., Mountainside, NJ, USA) and 99–0042 (Invitrogen^TM, Grand Island, NY, USA), respectively, according to their manufacturers’ procedures.

Assay [5] deals with Caspase-3. Kind of assay: Apoptosis-related proteins in HepG2 cells (ELISA), Caspase-3. It is filed as cell-based, human.
Excerpt: as §1, with “Collating all the provided evidence, the upregulation of caspase-3, caspase-9, and Bax is clear, while the downregulation of Bcl-2 genes makes it evident that compound 6b induces apoptosis within the liver cancer cell line (HepG2).” left out
The HepG2 cells were incubated in 96-well plates in triplicates and left for 24 h. […] The treated cells, along with control cells, were then incubated for another 24 h; then, caspases-3 and 9, BAX, and Bcl-2 levels were determined using ELISA assay kits; KHO1091 (Invitrogen^TM, Grand Island, NY, USA), EIA-4860 (DRU International, Inc., Mountainside, NJ, USA), EIA-4487 (DRU International INC., Mountainside, NJ, USA) and 99–0042 (Invitrogen^TM, Grand Island, NY, USA), respectively, according to their manufacturers’ procedures.

In assay [6] the test system is HepG2 cells. Kind of assay: Cell-cycle flow cytometry analysis (PI staining). It is filed as cell-based, human. Particulars: HepG2, 6b at 6.83 μM, 24 h. The procedure: Programmed cell death is a fundamental cellular program that is inherent in every cell of the human body. One of the most extensively studied forms of programmed cell death is apoptosis, which plays an important role during the various physiological processes and is involved in a variety of pathological conditions. The HepG2 cells were exposed to compound 6b for 24 h and the cell cycle was monitored via flow cytometry; the results are reported in Table 5.
To detect the effect of the synthesized compound, 6b, on cell cycle distribution, flow cytometry analysis was carried out, utilizing propidium iodide (PI) staining. The kit used for the cell cycle flow cytometry analysis was the K101-100 Annexin V-FITC Apoptosis Detection Kit (BioVision, Mountain View, CA, USA). […] Then, the treated cells were fixed in 70% ethanol for 12 h at 4 °C. Following that, the cells were rinsed with cold PBS, incubated with 100 μL RNase A for 0.5 h at 37 °C, and stained with propidium iodide (400 μL) in the dark at RT for an extra 0.5 h. The stained cells were determined, utilizing Epics XLMCL™ flow cytometer equipment (Beckman Coulter, Apeldoorn, Netherlands), then the results were collected and analyzed with the Flowing software (version 2.5.1, Turku Center for Biotechnology, Turku, Finland).
(In general: In flow cytometry, cells or beads pass a laser one at a time.)

The IC50 is the midpoint of a concentration-inhibition curve.

T1 sequence (P35968 20-1356): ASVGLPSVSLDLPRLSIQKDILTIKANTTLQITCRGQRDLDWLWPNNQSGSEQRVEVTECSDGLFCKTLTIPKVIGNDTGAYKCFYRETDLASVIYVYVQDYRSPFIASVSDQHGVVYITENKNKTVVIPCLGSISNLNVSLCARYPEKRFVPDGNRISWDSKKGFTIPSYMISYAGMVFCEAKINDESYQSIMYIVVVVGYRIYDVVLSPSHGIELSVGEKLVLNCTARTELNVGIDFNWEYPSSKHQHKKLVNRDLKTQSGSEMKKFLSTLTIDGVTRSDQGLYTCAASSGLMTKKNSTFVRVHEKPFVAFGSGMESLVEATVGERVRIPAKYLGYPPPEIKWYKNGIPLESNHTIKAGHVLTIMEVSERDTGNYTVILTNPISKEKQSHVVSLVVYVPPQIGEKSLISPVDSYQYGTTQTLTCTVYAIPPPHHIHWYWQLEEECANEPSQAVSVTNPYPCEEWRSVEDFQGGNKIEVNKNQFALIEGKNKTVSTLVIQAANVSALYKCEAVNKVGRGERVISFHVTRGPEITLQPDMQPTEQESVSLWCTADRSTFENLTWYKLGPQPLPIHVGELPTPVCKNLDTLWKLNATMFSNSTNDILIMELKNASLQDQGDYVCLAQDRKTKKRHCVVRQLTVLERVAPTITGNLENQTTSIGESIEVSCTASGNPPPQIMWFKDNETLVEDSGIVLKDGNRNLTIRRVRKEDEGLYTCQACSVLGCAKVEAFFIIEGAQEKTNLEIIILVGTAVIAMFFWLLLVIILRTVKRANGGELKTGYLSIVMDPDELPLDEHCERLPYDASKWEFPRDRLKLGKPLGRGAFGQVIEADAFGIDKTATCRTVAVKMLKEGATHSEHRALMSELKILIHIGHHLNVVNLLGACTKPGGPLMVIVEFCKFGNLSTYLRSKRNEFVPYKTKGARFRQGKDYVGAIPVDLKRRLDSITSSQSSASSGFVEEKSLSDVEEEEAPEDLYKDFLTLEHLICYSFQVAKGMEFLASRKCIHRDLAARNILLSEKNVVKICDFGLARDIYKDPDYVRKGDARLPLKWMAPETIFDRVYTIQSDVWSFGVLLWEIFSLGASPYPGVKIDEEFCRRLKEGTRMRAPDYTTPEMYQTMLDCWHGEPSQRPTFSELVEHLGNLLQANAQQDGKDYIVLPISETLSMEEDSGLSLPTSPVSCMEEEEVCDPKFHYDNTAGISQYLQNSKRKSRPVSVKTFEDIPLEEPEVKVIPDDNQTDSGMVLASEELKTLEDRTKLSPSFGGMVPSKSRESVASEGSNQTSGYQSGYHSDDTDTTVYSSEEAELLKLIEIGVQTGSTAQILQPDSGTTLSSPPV

On to `O=C(CSc1nc2ccccc2o1)NN=Cc1ccc[nH]1` (mixture of isomers) [Compound 6b, (E/Z)-N′-((1H-pyrrol-2-yl)methylene)-2-(benzo[d]oxazol-2-ylthio)acetohydrazide], for which the IC50 in assay [1] worked out at 2140 ± 100 nM. The IC50 in assay [2] was 2140 to 19300 nM. In addition, the IC50 in assay [3] came out at 565 ± 25 nM. In addition, in assay [4] (24 h treatment, ELISA), the “Bax Expression” value was found to be 448.4 ± 15.4 pg/mL. Also, the “expression ratio of Bax/Bcl-2” value in assay [4] (control = 1) came out at 20.53. Besides, the “Bax Fold” value in assay [4] (versus control HepG2 = 1) is given as 5.34 fold. For the same compound, the “Caspase-3 Expression” value in assay [5] (24 h treatment, ELISA) amounted to 467.6 ± 24 pg/mL. The “Caspase-3 Fold” value in assay [5] (versus control HepG2 = 1) came out at 5.02 fold. Further, in assay [6], the “%G0–G1” value is listed as 40.37%, the “%G2/M” value worked out at 31.26%, the “%Pre–G1” value is 16.84% and the “%S” value is reported as 28.37%.
